From BindingDB's records for patent US10052306 (CADENT THERAPEUTICS, INC., 2018)

Target: Glutamate receptor ionotropic, NMDA 2B (Homo sapiens, UniProt Q13224)
Assay: FDSS Assay
Description: To each well of the plate, 10 μL test compound, control (MK801) or HHnoCa buffer was added to a final concentration of 10 μM with a final concentration of DMSO of 0.1%. Following 10 minutes pre-incubation in the dark, plates are loaded onto the Hamamatsu FDSS 6000. After collecting baseline fluorescence images, 3 μM glutamate, 3 glycine, and 1 mM Ca2+ in HHnoCa buffer is added to each well, and Ca2+ is recorded for 3 minutes. Data were processed by computing ratio of fluorescence at the end of data collection to baseline fluorescence to assess degree of Ca′ influx inhibition relative to that observed in MK801.

Sequence of Glutamate receptor ionotropic, NMDA 2B (Q13224 whole entry): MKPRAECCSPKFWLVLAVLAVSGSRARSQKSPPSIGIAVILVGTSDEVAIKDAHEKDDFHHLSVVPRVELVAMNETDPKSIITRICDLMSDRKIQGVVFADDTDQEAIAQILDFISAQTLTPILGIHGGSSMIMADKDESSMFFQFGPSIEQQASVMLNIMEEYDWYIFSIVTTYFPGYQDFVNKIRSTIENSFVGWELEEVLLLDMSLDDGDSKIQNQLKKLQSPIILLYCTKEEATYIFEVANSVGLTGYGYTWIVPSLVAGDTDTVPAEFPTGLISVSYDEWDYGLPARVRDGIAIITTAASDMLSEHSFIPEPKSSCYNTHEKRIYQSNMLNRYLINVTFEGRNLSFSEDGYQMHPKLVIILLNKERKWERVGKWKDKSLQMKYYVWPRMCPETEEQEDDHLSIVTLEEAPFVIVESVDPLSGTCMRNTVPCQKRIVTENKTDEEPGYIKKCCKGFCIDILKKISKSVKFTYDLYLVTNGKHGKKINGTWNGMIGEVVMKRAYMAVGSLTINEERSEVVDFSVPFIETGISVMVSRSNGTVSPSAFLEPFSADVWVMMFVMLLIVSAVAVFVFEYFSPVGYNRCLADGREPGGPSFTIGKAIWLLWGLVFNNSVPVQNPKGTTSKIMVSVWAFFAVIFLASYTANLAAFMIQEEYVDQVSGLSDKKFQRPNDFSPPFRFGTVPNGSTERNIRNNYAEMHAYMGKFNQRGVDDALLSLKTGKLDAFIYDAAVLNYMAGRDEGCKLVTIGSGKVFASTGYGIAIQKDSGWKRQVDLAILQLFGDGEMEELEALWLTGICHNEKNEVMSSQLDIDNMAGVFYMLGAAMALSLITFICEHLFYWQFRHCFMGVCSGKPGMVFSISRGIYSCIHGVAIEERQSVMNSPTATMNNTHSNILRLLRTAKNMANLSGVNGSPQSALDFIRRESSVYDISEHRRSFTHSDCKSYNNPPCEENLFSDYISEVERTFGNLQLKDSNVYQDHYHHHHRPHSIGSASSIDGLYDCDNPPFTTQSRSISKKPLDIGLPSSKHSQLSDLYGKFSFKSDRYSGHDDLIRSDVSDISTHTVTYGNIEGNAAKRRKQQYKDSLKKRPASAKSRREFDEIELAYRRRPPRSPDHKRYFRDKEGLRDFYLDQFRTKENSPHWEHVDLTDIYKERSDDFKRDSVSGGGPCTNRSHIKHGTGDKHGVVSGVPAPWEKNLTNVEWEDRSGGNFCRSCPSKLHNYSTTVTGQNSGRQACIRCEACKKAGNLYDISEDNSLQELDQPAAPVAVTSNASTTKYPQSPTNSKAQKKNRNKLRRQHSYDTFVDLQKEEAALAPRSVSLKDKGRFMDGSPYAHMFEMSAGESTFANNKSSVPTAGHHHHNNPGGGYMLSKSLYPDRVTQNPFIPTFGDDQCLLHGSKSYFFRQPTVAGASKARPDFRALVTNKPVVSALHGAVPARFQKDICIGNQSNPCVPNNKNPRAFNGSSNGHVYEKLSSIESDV

`O=C(CN1C[C@@H]2C[C@@](O)(c3ccccc3)C[C@@H]2C1)c1ccc(O)cc1` [US10052306, 65] showed an IC50 of 10 µM.
